Test results as given in patent EP4674965A1, “SIRNA TARGETING INHIBIN ?E, SIRNA CONJUGATE, AND MEDICAL USE THEREOF” (Tuojie Biotech (Shanghai) Co., Ltd., priority 2023, dated 2024).

Key:
monkey INHBE = experiment: Multi-concentration-point inhibitory activity against INHBE in primary monkey hepatocytes (PCHs), qPCR; type: cell-based; conditions: 24 h; for IC50: PCH, monkey INHBE mRNA
Description: (§1) After the Q-PCR assay was completed, the corresponding Ct values were obtained based on the threshold automatically set by the system. The expression of a certain gene can be relatively quantified by comparing the Ct values. Comparing Ct refers to calculating the differences in gene expression by the differences from the Ct value of the internal reference gene, which is also referred to as 2-ΔΔCt, where ΔΔCt = [(Ct target gene in experimental group - Ct internal reference in experimental group) - (Ct target gene in control group - Ct internal reference in control group)]. Inhibition rate (%) = (1 - remaining level of target gene expression) × 100%.
(§2) The results are expressed relative to the remaining percentage of human INHBE mRNA expression in cells treated with the siRNA. The IC50 value corresponds to the concentration of the siRNA used when the remaining percentage of INHBE mRNA expression is 50%.
(§3) 24 h prior to transfection, PCH cells were seeded into a 96-well plate at about 30,000 cells/well, with each well containing 100 µL of a culture medium. The cells were transfected with the samples using Lipofectamine RNAi MAX (ThermoFisher, 13778150) following the instruction manual of the product, with the final concentration gradients of the samples for transfection being 20 nM, 4 nM, 0.8 nM, 0.16 nM, 0.032 nM, 0.0064 nM, and 0.00128 nM. After 24 h of treatment, total cellular RNA extraction was performed using a high-throughput cellular RNA extraction kit (FG0417-L/FG0418-XL, magnetic bead method), followed by an RNA reverse transcription experiment (Takara, RR037A) and a quantitative real-time PCR (Thermo, 4444557) assay. The mRNA level of monkey INHBE was determined and calibrated on the basis of the GAPDH internal reference gene level.
In the real-time quantitative PCR assay, a probe Q-PCR assay was used. Table 15. Taqman primer information
The result analysis method and calculation method for the remaining percentage of the target mRNA expression were the same as those in Example 4.

human INHBE = experiment: Multi-concentration-point inhibitory activity against INHBE in human hepatoma cell line (Huh7), qPCR; type: cell-based; conditions: for Remaining percentage of target gene mRNA expression (Huh7) (mean, %): Huh7, 24 h; for IC50: Huh7, INHBE mRNA, 24 h
Description: as §1, §2
as §3, with “Huh7” for “PCH”, “15,000” for “30,000”, “human” for “monkey”
The instruments, primer information, and result analysis method involved in this experiment were used with reference to Example 4.

Substance | Remaining percentage of target gene mRNA expression (PCH) (mean, %) (monkey INHBE; 0.00128 (nM per method)) [%] | Remaining percentage of target gene mRNA expression (PCH) (mean, %) (monkey INHBE; 0.0064 (nM per method)) [%] | Remaining percentage of target gene mRNA expression (PCH) (mean, %) (monkey INHBE; 0.032 (nM per method)) [%] | Remaining percentage of target gene mRNA expression (PCH) (mean, %) (monkey INHBE; 0.16 (nM per method)) [%] | Remaining percentage of target gene mRNA expression (PCH) (mean, %) (monkey INHBE; 0.8 (nM per method)) [%] | Remaining percentage of target gene mRNA expression (PCH) (mean, %) (monkey INHBE; 4 (nM per method)) [%] | Remaining percentage of target gene mRNA expression (PCH) (mean, %) (monkey INHBE; 20 (nM per method)) [%] | IC50 (monkey INHBE) [nM] | Remaining percentage of target gene mRNA expression (Huh7) (mean, %) (human INHBE; 0.00128 (nM per method)) [%] | Remaining percentage of target gene mRNA expression (Huh7) (mean, %) (human INHBE; 0.0064 (nM per method)) [%] | Remaining percentage of target gene mRNA expression (Huh7) (mean, %) (human INHBE; 0.032 (nM per method)) [%] | Remaining percentage of target gene mRNA expression (Huh7) (mean, %) (human INHBE; 0.16 (nM per method)) [%] | Remaining percentage of target gene mRNA expression (Huh7) (mean, %) (human INHBE; 0.8 (nM per method)) [%] | Remaining percentage of target gene mRNA expression (Huh7) (mean, %) (human INHBE; 4 (nM per method)) [%] | Remaining percentage of target gene mRNA expression (Huh7) (mean, %) (human INHBE; 20 (nM per method)) [%] | IC50 (human INHBE) [nM]
TJR102154: siRNA conjugate (Tables 14, 16); SS SEQ ID NO: 243, AS SEQ ID NO: 267 (sense UCAAAGCUAUUUUCAUAAU; antisense AUUAUGAAAAUAGCUUUGACU; conjugate ligand attached, 2'-OMe/2'-F pattern not given here) | 85.05 | 96.98 | 72.01 | 50.20 | 47.38 | 51.47 | 58.66 | 0.04 | 103.41 | 100.81 | 91.17 | 50.85 | 32.23 | 30.29 | 20.46 | 0.176
TJR102152: siRNA conjugate (Tables 14, 16); SS SEQ ID NO: 245, AS SEQ ID NO: 269 (sense UAAUAAUACUAACAUGUUA; antisense UAACAUGUUAGUAUUAUUAUG; conjugate ligand attached, 2'-OMe/2'-F pattern not given here) | 104.56 | 77.88 | 49.77 | 43.37 | 49.75 | 46.38 | 39.63 | 0.0302 | 108.45 | 109.51 | 98.76 | 76.27 | 51.25 | 37.74 | 25.82 | 0.92
